# Measurements from publication PMC11480411, “Mucosal sugars delineate pyrazine vs pyrazinone autoinducer signaling in Klebsiella oxytoca” (Nature Communications, 2024).
# Assays:
# Experiment in all cases: PRESTO-Tango GPCR screen
# Type in all cases: cell-based
# Conditions in all cases: 100 µM
# CCR5 = target: T1, CCR5 (Homo sapiens, UniProt P51681)
# T1 construct: purchased PRESTO-Tango GPCR kit (Roth lab / Addgene)
# In short: (§1)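 HTLA cells (HEK293 stably expressing β-arrestin-TEV and tTA-luciferase) transiently transfected with GPCR-Tango plasmids, then exposed to compound at 100 μM final for 20 h. Luminescence read after Bright-Glo; activation fold = RLU over PBS control. Dose-response spanned 10^−4 M to 10^−15 M.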
# GPR173 = target: T2, GPR173 (Homo sapiens, UniProt Q9NS66)
# T2 construct: purchased PRESTO-Tango GPCR kit (Roth lab / Addgene)
# In short: as §1
# RXFP3 = target: T3, RXFP3 (Homo sapiens, UniProt Q9NSD7)
# T3 construct: purchased PRESTO-Tango GPCR kit (Roth lab / Addgene)
# In short: as §1
# CXCR4 = target: T4, CXCR4 (Homo sapiens, UniProt P61073)
# T4 construct: purchased PRESTO-Tango GPCR kit (Roth lab / Addgene)
# In short: as §1
# OPRK1 = target: T5, OPRK1 (Homo sapiens, UniProt P41145)
# T5 construct: purchased PRESTO-Tango GPCR kit (Roth lab / Addgene)
# In short: as §1
# MAS1L = target: T6, MAS1L (Homo sapiens, UniProt P35410)
# T6 construct: purchased PRESTO-Tango GPCR kit (Roth lab / Addgene)
# In short: as §1
# GPR116 = target: T7, GPR116 (Homo sapiens, UniProt Q8IZF2)
# T7 construct: purchased PRESTO-Tango GPCR kit (Roth lab / Addgene)
# In short: as §1
# GPR50 = target: T8, GPR50 (Homo sapiens, UniProt Q13585)
# T8 construct: purchased PRESTO-Tango GPCR kit (Roth lab / Addgene)
# In short: as §1
# ADRA1D = target: T9, ADRA1D (Homo sapiens, UniProt P25100)
# T9 construct: purchased PRESTO-Tango GPCR kit (Roth lab / Addgene)
# In short: as §1
# FPR3 = target: T10, FPR3 (Homo sapiens, UniProt P25089)
# T10 construct: purchased PRESTO-Tango GPCR kit (Roth lab / Addgene)
# In short: as §1
# MRGPRX4 = target: T11, MRGPRX4 (Homo sapiens, UniProt Q96LA9)
# T11 construct: purchased PRESTO-Tango GPCR kit (Roth lab / Addgene)
# In short: as §1
# CCR10 = target: T12, CCR10 (Homo sapiens, UniProt P46092)
# T12 construct: purchased PRESTO-Tango GPCR kit (Roth lab / Addgene)
# In short: as §1
# CHRM4 = target: T13, CHRM4 (Homo sapiens, UniProt P08173)
# T13 construct: purchased PRESTO-Tango GPCR kit (Roth lab / Addgene)
# In short: as §1
# NPBW2 = target: T14, NPBW2 (Homo sapiens, UniProt P48146)
# T14 construct: purchased PRESTO-Tango GPCR kit (Roth lab / Addgene)
# In short: as §1
# ADRA1A = target: T15, ADRA1A (Homo sapiens, UniProt P35348)
# T15 construct: purchased PRESTO-Tango GPCR kit (Roth lab / Addgene)
# In short: as §1
# NPY2R = target: T16, NPY2R (Homo sapiens, UniProt P49146)
# T16 construct: purchased PRESTO-Tango GPCR kit (Roth lab / Addgene)
# In short: as §1
# GPR120 = target: T17, GPR120 (Homo sapiens, UniProt Q5NUL3)
# T17 construct: purchased PRESTO-Tango GPCR kit (Roth lab / Addgene)
# In short: as §1
# P2RY14 = target: T18, P2RY14 (Homo sapiens, UniProt Q15391)
# T18 construct: purchased PRESTO-Tango GPCR kit (Roth lab / Addgene)
# In short: as §1
# HTR5 = target: T19, HTR5 (Homo sapiens, UniProt P47898)
# T19 construct: purchased PRESTO-Tango GPCR kit (Roth lab / Addgene)
# In short: as §1
# GRM8 = target: T20, GRM8 (Homo sapiens, UniProt O00222)
# T20 construct: purchased PRESTO-Tango GPCR kit (Roth lab / Addgene)
# In short: as §1
# GPR85 = target: T21, GPR85 (Homo sapiens, UniProt P60893)
# T21 construct: purchased PRESTO-Tango GPCR kit (Roth lab / Addgene)
# In short: as §1
# ADORA2B = target: T22, ADORA2B (Homo sapiens, UniProt P29275)
# T22 construct: purchased PRESTO-Tango GPCR kit (Roth lab / Addgene)
# In short: as §1
# NTSR1 = target: T23, NTSR1 (Homo sapiens, UniProt P30989)
# T23 construct: purchased PRESTO-Tango GPCR kit (Roth lab / Addgene)
# In short: as §1
# GPR156 = target: T24, GPR156 (Homo sapiens, UniProt Q8NFN8)
# T24 construct: purchased PRESTO-Tango GPCR kit (Roth lab / Addgene)
# In short: as §1
# CALCRb = target: T25, CALCRb (Homo sapiens, UniProt P30988)
# T25 construct: purchased PRESTO-Tango GPCR kit (Roth lab / Addgene)
# In short: as §1
# GPR161 = target: T26, GPR161 (Homo sapiens, UniProt Q8N6U8)
# T26 construct: purchased PRESTO-Tango GPCR kit (Roth lab / Addgene)
# In short: as §1
# GPR146 = target: T27, GPR146 (Homo sapiens, UniProt Q96CH1)
# T27 construct: purchased PRESTO-Tango GPCR kit (Roth lab / Addgene)
# In short: as §1
# GPR55 = target: T28, GPR55 (Homo sapiens, UniProt Q9Y2T6)
# T28 construct: purchased PRESTO-Tango GPCR kit (Roth lab / Addgene)
# In short: as §1
# NTSR2 = target: T29, NTSR2 (Homo sapiens, UniProt O95665)
# T29 construct: purchased PRESTO-Tango GPCR kit (Roth lab / Addgene)
# In short: as §1
# ADRB2 = target: T30, ADRB2 (Homo sapiens, UniProt P07550)
# T30 construct: purchased PRESTO-Tango GPCR kit (Roth lab / Addgene)
# In short: as §1
# CD97 = target: T31, CD97 (Homo sapiens, UniProt P48960)
# T31 construct: purchased PRESTO-Tango GPCR kit (Roth lab / Addgene)
# In short: as §1
# OPRM1 = target: T32, OPRM1 (Homo sapiens, UniProt P35372)
# T32 construct: purchased PRESTO-Tango GPCR kit (Roth lab / Addgene)
# In short: as §1
# GPR124 = target: T33, GPR124 (Homo sapiens, UniProt Q96PE1)
# T33 construct: purchased PRESTO-Tango GPCR kit (Roth lab / Addgene)
# In short: as §1
# SSTR4 = target: T34, SSTR4 (Homo sapiens, UniProt P31391)
# T34 construct: purchased PRESTO-Tango GPCR kit (Roth lab / Addgene)
# In short: as §1
# S1PR5 = target: T35, S1PR5 (Homo sapiens, UniProt Q9H228)
# T35 construct: purchased PRESTO-Tango GPCR kit (Roth lab / Addgene)
# In short: as §1
# T26 sequence (Q8N6U8 whole entry): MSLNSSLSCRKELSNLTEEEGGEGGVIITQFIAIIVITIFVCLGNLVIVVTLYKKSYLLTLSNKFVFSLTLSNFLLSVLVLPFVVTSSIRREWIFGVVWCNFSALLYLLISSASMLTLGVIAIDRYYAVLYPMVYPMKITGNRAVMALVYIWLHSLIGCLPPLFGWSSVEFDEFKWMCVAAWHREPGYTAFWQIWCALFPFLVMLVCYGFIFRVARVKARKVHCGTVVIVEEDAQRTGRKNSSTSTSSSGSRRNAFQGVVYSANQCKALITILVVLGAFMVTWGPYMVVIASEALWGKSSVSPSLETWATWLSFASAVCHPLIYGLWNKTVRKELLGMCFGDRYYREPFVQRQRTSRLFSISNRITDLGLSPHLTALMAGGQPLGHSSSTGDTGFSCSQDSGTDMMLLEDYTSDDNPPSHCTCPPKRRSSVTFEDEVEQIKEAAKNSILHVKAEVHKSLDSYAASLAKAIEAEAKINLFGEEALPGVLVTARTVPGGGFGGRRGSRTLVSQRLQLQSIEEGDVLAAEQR
# T15 sequence (P35348 whole entry): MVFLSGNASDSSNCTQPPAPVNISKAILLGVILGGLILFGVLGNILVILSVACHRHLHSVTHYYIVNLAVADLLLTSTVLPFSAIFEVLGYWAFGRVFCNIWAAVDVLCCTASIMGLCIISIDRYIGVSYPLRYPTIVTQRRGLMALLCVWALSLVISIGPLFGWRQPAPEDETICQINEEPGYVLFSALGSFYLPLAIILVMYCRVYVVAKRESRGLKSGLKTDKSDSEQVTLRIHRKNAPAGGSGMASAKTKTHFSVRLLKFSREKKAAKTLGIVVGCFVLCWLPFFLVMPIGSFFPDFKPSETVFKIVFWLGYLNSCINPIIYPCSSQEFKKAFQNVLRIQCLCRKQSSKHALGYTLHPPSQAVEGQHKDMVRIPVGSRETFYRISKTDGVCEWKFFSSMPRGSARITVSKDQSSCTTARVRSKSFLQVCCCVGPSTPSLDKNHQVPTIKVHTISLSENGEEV
# T27 sequence (Q96CH1 whole entry): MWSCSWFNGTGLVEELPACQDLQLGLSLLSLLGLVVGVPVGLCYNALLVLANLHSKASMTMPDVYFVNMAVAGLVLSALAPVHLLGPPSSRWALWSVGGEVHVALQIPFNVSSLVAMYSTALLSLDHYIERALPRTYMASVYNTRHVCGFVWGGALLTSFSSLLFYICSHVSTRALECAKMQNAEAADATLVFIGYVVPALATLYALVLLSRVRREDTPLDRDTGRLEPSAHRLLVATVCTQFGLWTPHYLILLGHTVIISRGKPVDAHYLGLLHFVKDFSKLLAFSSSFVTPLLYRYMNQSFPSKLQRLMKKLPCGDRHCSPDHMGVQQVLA
# T19 sequence (P47898 whole entry): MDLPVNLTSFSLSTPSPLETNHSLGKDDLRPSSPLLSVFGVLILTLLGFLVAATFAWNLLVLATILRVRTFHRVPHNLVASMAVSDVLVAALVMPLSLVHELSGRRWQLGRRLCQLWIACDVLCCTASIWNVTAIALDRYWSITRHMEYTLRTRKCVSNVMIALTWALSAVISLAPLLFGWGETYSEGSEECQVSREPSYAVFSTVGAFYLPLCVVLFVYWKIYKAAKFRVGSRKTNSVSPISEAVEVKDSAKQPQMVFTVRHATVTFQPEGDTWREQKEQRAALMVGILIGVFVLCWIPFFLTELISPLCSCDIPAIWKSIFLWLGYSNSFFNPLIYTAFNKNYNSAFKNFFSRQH
# T3 sequence (Q9NSD7 whole entry): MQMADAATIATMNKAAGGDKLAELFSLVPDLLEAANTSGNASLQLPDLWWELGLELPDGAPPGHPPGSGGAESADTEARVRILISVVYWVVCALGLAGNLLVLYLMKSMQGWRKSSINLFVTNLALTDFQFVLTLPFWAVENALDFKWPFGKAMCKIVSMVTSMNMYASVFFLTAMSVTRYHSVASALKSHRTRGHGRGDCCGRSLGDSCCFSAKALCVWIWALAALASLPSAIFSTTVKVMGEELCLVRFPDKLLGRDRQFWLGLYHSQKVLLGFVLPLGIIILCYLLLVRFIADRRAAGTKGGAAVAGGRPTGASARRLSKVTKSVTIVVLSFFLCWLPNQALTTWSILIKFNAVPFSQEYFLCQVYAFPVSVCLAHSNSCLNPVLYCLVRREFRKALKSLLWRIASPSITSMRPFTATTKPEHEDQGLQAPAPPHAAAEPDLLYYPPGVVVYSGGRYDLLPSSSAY
# T28 sequence (Q9Y2T6 whole entry): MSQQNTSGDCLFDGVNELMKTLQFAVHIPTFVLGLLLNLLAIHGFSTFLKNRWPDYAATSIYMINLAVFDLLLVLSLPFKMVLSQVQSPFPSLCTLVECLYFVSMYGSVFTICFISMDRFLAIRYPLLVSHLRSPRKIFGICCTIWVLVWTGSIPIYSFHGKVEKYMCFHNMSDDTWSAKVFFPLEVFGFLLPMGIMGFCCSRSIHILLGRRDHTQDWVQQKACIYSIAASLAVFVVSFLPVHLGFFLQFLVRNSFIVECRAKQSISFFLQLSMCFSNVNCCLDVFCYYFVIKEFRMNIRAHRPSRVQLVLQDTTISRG
# T29 sequence (O95665 whole entry): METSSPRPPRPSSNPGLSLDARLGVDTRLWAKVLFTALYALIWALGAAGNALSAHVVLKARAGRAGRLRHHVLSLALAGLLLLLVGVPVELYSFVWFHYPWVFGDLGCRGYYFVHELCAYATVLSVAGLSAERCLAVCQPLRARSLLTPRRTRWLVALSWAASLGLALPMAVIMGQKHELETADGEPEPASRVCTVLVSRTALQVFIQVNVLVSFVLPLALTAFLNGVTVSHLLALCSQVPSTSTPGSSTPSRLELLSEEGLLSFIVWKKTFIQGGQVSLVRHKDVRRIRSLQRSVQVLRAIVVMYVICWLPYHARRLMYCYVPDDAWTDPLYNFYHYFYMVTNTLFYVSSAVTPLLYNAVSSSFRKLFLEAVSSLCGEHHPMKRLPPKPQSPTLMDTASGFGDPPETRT
# T22 sequence (P29275 whole entry): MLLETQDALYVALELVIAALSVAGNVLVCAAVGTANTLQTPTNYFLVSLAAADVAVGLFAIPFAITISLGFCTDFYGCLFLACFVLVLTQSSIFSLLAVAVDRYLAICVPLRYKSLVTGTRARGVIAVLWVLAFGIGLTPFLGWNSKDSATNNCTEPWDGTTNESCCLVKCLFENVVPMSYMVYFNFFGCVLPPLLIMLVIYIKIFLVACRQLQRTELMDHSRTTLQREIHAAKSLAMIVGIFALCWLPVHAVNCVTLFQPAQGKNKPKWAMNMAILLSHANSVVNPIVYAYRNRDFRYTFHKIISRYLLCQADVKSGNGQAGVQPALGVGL
# T13 sequence (P08173 whole entry): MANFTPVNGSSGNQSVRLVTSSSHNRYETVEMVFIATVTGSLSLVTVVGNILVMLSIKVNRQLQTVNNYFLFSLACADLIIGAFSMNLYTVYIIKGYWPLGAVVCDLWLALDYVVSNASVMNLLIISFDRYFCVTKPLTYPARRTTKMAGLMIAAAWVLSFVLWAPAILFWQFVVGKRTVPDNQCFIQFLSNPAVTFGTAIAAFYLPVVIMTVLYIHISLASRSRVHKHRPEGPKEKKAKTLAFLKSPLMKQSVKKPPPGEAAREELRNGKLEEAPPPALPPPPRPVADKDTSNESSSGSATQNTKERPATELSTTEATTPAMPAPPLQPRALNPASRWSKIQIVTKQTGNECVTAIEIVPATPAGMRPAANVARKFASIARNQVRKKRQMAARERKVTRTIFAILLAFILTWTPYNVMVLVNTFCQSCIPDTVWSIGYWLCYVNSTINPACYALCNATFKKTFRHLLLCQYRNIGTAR
# T12 sequence (P46092 whole entry): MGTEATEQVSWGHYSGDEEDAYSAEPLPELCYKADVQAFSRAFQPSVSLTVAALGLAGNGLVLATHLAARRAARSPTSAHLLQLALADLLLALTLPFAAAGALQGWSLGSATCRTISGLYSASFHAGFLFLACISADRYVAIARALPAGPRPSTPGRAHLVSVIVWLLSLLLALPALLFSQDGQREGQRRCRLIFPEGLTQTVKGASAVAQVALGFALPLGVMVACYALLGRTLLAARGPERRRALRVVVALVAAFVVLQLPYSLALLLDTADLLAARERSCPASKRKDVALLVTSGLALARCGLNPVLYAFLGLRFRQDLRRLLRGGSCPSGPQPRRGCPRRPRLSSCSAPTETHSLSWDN
# T14 sequence (P48146 whole entry): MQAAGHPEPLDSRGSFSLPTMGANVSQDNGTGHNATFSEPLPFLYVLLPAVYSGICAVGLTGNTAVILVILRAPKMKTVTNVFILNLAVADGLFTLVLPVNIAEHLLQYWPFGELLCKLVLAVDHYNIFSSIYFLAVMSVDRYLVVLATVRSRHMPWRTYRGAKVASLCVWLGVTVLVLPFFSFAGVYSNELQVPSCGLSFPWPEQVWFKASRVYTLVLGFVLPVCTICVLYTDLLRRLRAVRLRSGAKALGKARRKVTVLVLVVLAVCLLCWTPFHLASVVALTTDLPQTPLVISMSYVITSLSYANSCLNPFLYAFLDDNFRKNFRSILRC
# T35 sequence (Q9H228 whole entry): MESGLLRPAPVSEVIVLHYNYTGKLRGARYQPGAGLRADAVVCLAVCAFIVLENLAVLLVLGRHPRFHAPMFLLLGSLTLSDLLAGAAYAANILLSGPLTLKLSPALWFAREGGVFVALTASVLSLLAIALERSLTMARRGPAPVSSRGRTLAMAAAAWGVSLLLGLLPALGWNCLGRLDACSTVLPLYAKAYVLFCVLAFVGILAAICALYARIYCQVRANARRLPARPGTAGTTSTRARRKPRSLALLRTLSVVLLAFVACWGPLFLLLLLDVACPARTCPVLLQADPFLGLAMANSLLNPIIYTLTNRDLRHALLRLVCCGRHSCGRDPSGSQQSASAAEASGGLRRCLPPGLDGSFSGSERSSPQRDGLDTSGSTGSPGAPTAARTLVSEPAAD
SMILES,GPCR activation (heatmap value) (CCR5),GPCR activation (heatmap value) (GPR173),GPCR activation (heatmap value) (RXFP3),GPCR activation (heatmap value) (CXCR4),GPCR activation (heatmap value) (OPRK1),GPCR activation (heatmap value) (MAS1L),GPCR activation (heatmap value) (GPR116),GPCR activation (heatmap value) (GPR50),GPCR activation (heatmap value) (ADRA1D),GPCR activation (heatmap value) (FPR3),GPCR activation (heatmap value) (MRGPRX4),GPCR activation (heatmap value) (CCR10),GPCR activation (heatmap value) (CHRM4),GPCR activation (heatmap value) (NPBW2),GPCR activation (heatmap value) (ADRA1A),GPCR activation (heatmap value) (NPY2R),GPCR activation (heatmap value) (GPR120),GPCR activation (heatmap value) (P2RY14),GPCR activation (heatmap value) (HTR5),GPCR activation (heatmap value) (GRM8),further results
CC(C)Cc1ncc(CCCCNC(=N)N)[nH]c1=O [3-Homo],0.4723,-0.8728,0.07695,0.1574,-0.1244,0.1505,-0.4317,0.1425,0.4606,0.135,0.4562,0.7826,0.08984,-0.3796,-0.07966,0.3401,0.1572,0.07991,0.4039,0.556,GPCR activation (heatmap value) (GPR85): -0.7717; GPCR activation (heatmap value) (ADORA2B): -1.632; GPCR activation (heatmap value) (NTSR1): 0.1673; GPCR activation (heatmap value) (GPR156): 0.2712; GPCR activation (heatmap value) (CALCRb): -1.592; GPCR activation (heatmap value) (GPR161): 0.03788; GPCR activation (heatmap value) (GPR146): -0.8234; GPCR activation (heatmap value) (GPR55): -0.519; GPCR activation (heatmap value) (NTSR2): -0.1953; GPCR activation (heatmap value) (ADRB2): -0.1039; GPCR activation (heatmap value) (CD97): 0.04802; GPCR activation (heatmap value) (OPRM1): 0.127; GPCR activation (heatmap value) (GPR124): -0.5918; GPCR activation (heatmap value) (SSTR4): 0.2411; GPCR activation (heatmap value) (S1PR5): -0.7802
CC(C)Cc1ncc(CCCNC(=N)N)[nH]c1=O [compound 3],-0.6917,-0.2495,-0.5079,-0.06133,0.02999,-0.3942,-0.4037,0.1425,-0.2106,0.01401,0.07015,0.9946,0.4059,-0.2074,-0.2156,0.1932,0.8927,0.6085,-0.08015,-0.7817,GPCR activation (heatmap value) (GPR85): -0.1892; GPCR activation (heatmap value) (ADORA2B): 0.06134; GPCR activation (heatmap value) (NTSR1): -0.1053; GPCR activation (heatmap value) (GPR156): 0.1542; GPCR activation (heatmap value) (CALCRb): -0.6231; GPCR activation (heatmap value) (GPR161): 0.1774; GPCR activation (heatmap value) (GPR146): -0.2269; GPCR activation (heatmap value) (GPR55): 0.5927; GPCR activation (heatmap value) (NTSR2): -2.304; GPCR activation (heatmap value) (ADRB2): 0.6209; GPCR activation (heatmap value) (CD97): 0.5; GPCR activation (heatmap value) (OPRM1): 1.469; GPCR activation (heatmap value) (GPR124): 0.8185; GPCR activation (heatmap value) (SSTR4): -0.01818; GPCR activation (heatmap value) (S1PR5): 0
